{"source": "patent US7939509B2", "about": "“Partial and full agonists of A1 adenosine receptors” (Gilead Sciences, Inc., priority 2002, dated 2011)", "format_in_all_cases": "in vivo, rat", "key": {"[1]": {"system": "awake rats", "assay": "Anti-lipolytic effect: serum free fatty acids (FFA) in overnight-fasted awake rats", "procedure": "All experimental procedures were performed under a protocol approved by the Institutional Animal Care and Use Committee of CV Therapeutics, Inc., and in accordance with the recommendations set forth in the Guide for the Care and Use of Laboratory Animals published by the National Research Council. Male Sprague-Dawley rats (225-250 gm) with either one or two indwelling catheters (carotid and jugular) were purchased from Charles River Laboratories (Wilmington, Mass.). Animals were housed 1 per cage in a room maintained on a 12 h light/dark cycle (light on 06.00-18.00 h) under constant temperature (22-25° C.) and with ad libitum access to food and water. The anti-lipolytic effects of Compound A were studied in awake rats. Animals were fasted overnight before experimental use. On the day of the experiment, animals were put in metabolic cages and left undisturbed to acclimate to the environment for 1-2 hrs. An infusion set (21 G×¾″, 0.8×19 mm U.T.W., 3½″, 9 cm tubing, volume 0.15 ml) was connected to the arterial catheter for blood sampling. A 1% sodium citrate saline solution was used to flush the lines. A pre-treatment blood sample was obtained from each animal to determine baseline values for FFA and TG. Compound A was given via oral gavage, sc injection, iv injection, or iv infusion, as described, for each different series of experiments. Blood samples were collected into serum separator tubes (Becton Dickinson, Franklin Lakes, N.J.) at pre-determined times, Blood was allowed to clot, and then centrifuged at 8000 rpm for 4 min at 4° C. The serum was stored at −80° C. and was thawed at 4° C. for determinations of FFA and TG contents. […] Sodium citrate and Triton WR1339 were purchased from Sigma (St. Louis, Mo.). Nicotinic acid and PEG 400 were purchased from VWR (by EMD Chemicals). Triton WR 1339 was diluted in warm saline (˜37° C.) with frequent vortexing. […] Compound A was dissolved in PEG 400, and then diluted with distilled water to make a 20% PEG drug solution. Serum FFA and TGs were measured using commercial kits from Wako Chemicals, Richmond, Va. Glucose and Insulin were measured using commercial kits from Wako Chemicals USA (Richmond, Va.). All data are reported as mean±SEM. Statistical analysis of data from experiments with 2 treatment groups was performed using the unpaired Student's t-test. Two way analysis of variance followed by Bonferroni's test was used for multiple comparisons."}, "[2]": {"system": "awake rats", "assay": "Insulin dose response to reduce FFA with and without Compound A in awake rats", "procedure": "FIG. 6 graphically represents how Compound A potentates the effect of insulin in reducing FFA levels. Shown are the dose response curves for the effect of insulin to reduce FFA obtained in the absence and presence of Compound A (0.5 mg/kg) in awake rats. Both insulin and Compound A were given via IP injection. Each data point is the mean±SEM of the maximal (peak effect) percent decrease in FFA levels from baseline from three to five rats.\nThe anti-lipolytic effects of Compound A were studied in awake rats. Animals were fasted overnight before experimental use. On the day of the experiment, animals were put in metabolic cages and left undisturbed to acclimate to the environment for 1-2 hrs. An infusion set (21 G×¾″, 0.8×19 mm U.T.W., 3½″, 9 cm tubing, volume 0.15 ml) was connected to the arterial catheter for blood sampling. A 1% sodium citrate saline solution was used to flush the lines. A pre-treatment blood sample was obtained from each animal to determine baseline values for FFA and TG. Compound A was given via oral gavage, sc injection, iv injection, or iv infusion, as described, for each different series of experiments. Blood samples were collected into serum separator tubes (Becton Dickinson, Franklin Lakes, N.J.) at pre-determined times, Blood was allowed to clot, and then centrifuged at 8000 rpm for 4 min at 4° C. The serum was stored at −80° C. and was thawed at 4° C. for determinations of FFA and TG contents.\nThe effect of insulin (0.005-1 U/kg) to reduce serum FFA was determined in the absence and presence of a single dose (0.5 mg/kg) of Compound A (FIG. 6). Baseline FFA levels before insulin administration in vehicle and Compound A treated groups were 0.84±0.01 and 0.92±0.02 mM, respectively. […] The insulin dose response to reduce FFA levels was then repeated in the presence of Compound A (0.5 mg/kg). Compound A alone (0.5 mg/kg) caused an 18% decrease in FFA levels. The doses of insulin that cause 50% decrease (ED50) in FFA levels in the absence and presence of Compound A were 0.4 and 0.1 U/kg, respectively."}, "[3]": {"system": "rats fed high fat diet", "assay": "Chronic 2 week treatment: fasting glucose, insulin, FFA, TG in high fat diet rats", "conditions": "5 mg/kg SC for 2 weeks, HF rats", "protocol": "Animals were fasted overnight before taking samples. Compound A was given via SC injection for 2 weeks at a dose of 5 mg/kg. Data is presented as mean±SEM from number of animals indicated below each bar. […] Male Sprague-Dawley rats (225-250 gm) with either one or two indwelling catheters (carotid and jugular) were obtained from Charles River Laboratories (Wilmington, Mass.). Animals were housed 1 per cage in a room maintained on a 12 h light/dark cycle (light on 06.00-18.00 h) under constant temperature (22-25° C.) and with ad libitum access to food and water. Rats on normal diet (Chow) were fed standard laboratory chow (12% fat, 60% carbohydrate, and 28% protein) throughout the study, while animals in the high fat (HF) diet group were given a diet (TD88137 from Harlan Teklad, Madison, Wis.) containing 42% fat, 43% carbohydrate, and 15% protein. The anti-lipolytic effects of Compound A (see chemical name below) were studied in awake rats. On the day of the experiment, animals were put in metabolic cages and left undisturbed to acclimate to the environment for 1-2 hrs. An infusion set (21 G×¾″, 0.8×19 mm U.T.W., 3½″, 9 cm tubing, volume 0.15 ml) was connected to the arterial catheter for blood sampling. A 1% sodium citrate saline solution was used to flush the lines. A pre-treatment blood sample was obtained from each animal to determine baseline values for glucose, insulin, FFA and TG. Blood samples were collected into plasma and serum separator tubes (Becton Dickinson, Franklin Lakes, N.J.) at pre-determined time points. […] For chronic experiments Compound A was administered twice a day via subcutaneous injection at a dose of 5 mg/kg for 2 weeks. […] Statistical analysis of data from experiments with 2 treatment groups was performed using the unpaired Student's t-test. One way analysis of variance (ANOVA) followed by Newman-Keuls posthoc analysis was used for multiple comparisons. […] Differences between/among treatment groups were considered to be significant when the probability of their occurrence by chance alone was <0.05."}, "[4]": {"system": "rats fed high fat diet", "assay": "Oral glucose tolerance test after 2 week treatment in high fat diet rats", "conditions": "5 mg/kg SC twice a day for 2 weeks, HF rats", "protocol": "Animals were fasted overnight before taking samples. Compound A was given twice daily via a SC injection for 2 weeks at a dose of 5 mg/kg. Data is presented as mean±SEM from number of animals indicated in the parenthesis for each group. […] All experimental procedures were performed under a protocol approved by the IACUC (CV Therapeutics, Inc.) and in accordance with the recommendations set forth in the Guide for the Care and Use of Laboratory Animals published by the National Research Council. Male Sprague-Dawley rats (225-250 gm) with either one or two indwelling catheters (carotid and jugular) were obtained from Charles River Laboratories (Wilmington, Mass.). Animals were housed 1 per cage in a room maintained on a 12 h light/dark cycle (light on 06.00-18.00 h) under constant temperature (22-25° C.) and with ad libitum access to food and water. Rats on normal diet (Chow) were fed standard laboratory chow (12% fat, 60% carbohydrate, and 28% protein) throughout the study, while animals in the high fat (HF) diet group were given a diet (TD88137 from Harlan Teklad, Madison, Wis.) containing 42% fat, 43% carbohydrate, and 15% protein. […] On the day of the experiment, animals were put in metabolic cages and left undisturbed to acclimate to the environment for 1-2 hrs. An infusion set (21 G×¾″, 0.8×19 mm U.T.W., 3½″, 9 cm tubing, volume 0.15 ml) was connected to the arterial catheter for blood sampling. A 1% sodium citrate saline solution was used to flush the lines. A pre-treatment blood sample was obtained from each animal to determine baseline values for glucose, insulin, FFA and TG. Blood samples were collected into plasma and serum separator tubes (Becton Dickinson, Franklin Lakes, N.J.) at pre-determined time points. Oral glucose tolerance test (OGTT) was performed by giving 2 gm/kg of glucose load. […] For chronic experiments Compound A was administered twice a day via subcutaneous injection at a dose of 5 mg/kg for 2 weeks. […] Data form OGTT was analyzed by calculating area under the curve (AUC) using prism graphpad software. […]"}}}
{"molecule": "O[C@@H]1[C@H](O)[C@@H](CSc2ccccc2F)O[C@H]1n1cnc2c(N[C@@H]3CCC[C@H]3O)ncnc21", "note": "[Compound A, 2-{6-[((1R,2R)-2-hydroxycyclopentyl)amino]purin-9-yl}(4S,5S,2R,3R)-5-[(2-fluorophenylthio)methyl]oxolane-3,4-diol]", "values": [{"measurement": "maximal decrease in FFA levels", "setting": "[1]; 1 mg/kg iv bolus", "value": "54±5", "unit": "%"}, {"measurement": "FFA level after treatment", "setting": "[1]; 1 mg/kg iv bolus, from 0.79±0.04 mM, p<0.001", "value": "0.36 ± 0.05", "unit": "mM"}, {"measurement": "FFA level after first iv injection", "setting": "[1]; 1 mg/kg iv, first of three repeated injections, baseline 0.88±0.02 mM", "value": "0.35 ± 0.04", "unit": "mM"}, {"measurement": "FFA level after second iv injection", "setting": "[1]; 1 mg/kg iv, second of three repeated injections, baseline 0.88±0.02 mM", "value": "0.35 ± 0.03", "unit": "mM"}, {"measurement": "FFA level after third iv injection", "setting": "[1]; 1 mg/kg iv, third of three repeated injections, baseline 0.88±0.02 mM", "value": "0.38 ± 0.03", "unit": "mM"}, {"measurement": "decrease in FFA below baseline", "setting": "[1]; 2.5 mg/kg oral gavage", "value": 31, "unit": "%"}, {"measurement": "FFA level after treatment", "setting": "[1]; 2.5 mg/kg oral gavage, from baseline 0.7±0.05 mM, p<0.05", "value": "0.5 ± 0.03", "unit": "mM"}, {"measurement": "decrease in FFA levels", "setting": "[1]; 5 mg/kg oral gavage", "value": 47, "unit": "%"}, {"measurement": "FFA level after treatment", "setting": "[1]; 5 mg/kg oral gavage, from 0.8±0.04 mM, p<0.01", "value": "0.4 ± 0.03", "unit": "mM"}, {"measurement": "decrease in FFA levels", "setting": "[1]; 10 mg/kg oral gavage", "value": 57, "unit": "%"}, {"measurement": "FFA level after treatment", "setting": "[1]; 10 mg/kg oral gavage, from 0.68±0.04 mM, p<0.001", "value": "0.29 ± 0.02", "unit": "mM"}, {"measurement": "duration of the effect to suppress lipolysis", "setting": "[1]; 2.5, 5, 10 mg/kg oral gavage", "value": "dose-dependent"}, {"measurement": "lowering of FFA levels, dose dependence", "setting": "[1]; 2.5, 5, 10 mg/kg oral gavage", "value": "dose-dependent manner"}, {"measurement": "rebound increase of FFA levels", "setting": "[1]; after iv bolus", "value": "not observed"}, {"measurement": "acute tachyphylaxis of the FFA lowering effect", "setting": "[1]; three repeated iv injections, 1 mg/kg", "value": "did not undergo acute tachyphylaxis"}, {"measurement": "decrease in FFA levels by Compound A alone", "setting": "[2]; 0.5 mg/kg IP", "value": 18, "unit": "%"}, {"measurement": "leftward shift of the insulin dose-response to lower FFA", "setting": "[2]; Compound A 0.5 mg/kg", "value": 4, "unit": "fold"}, {"measurement": "fasting FFA concentration vs placebo", "setting": "[3]", "value": "significantly lower"}, {"measurement": "fasting TG concentration vs placebo", "setting": "[3]", "value": "significantly lower"}, {"measurement": "fasting glucose concentration vs placebo", "setting": "[3]", "value": "no significant differences"}, {"measurement": "fasting insulin concentration vs placebo", "setting": "[3]", "value": "significantly lower"}, {"measurement": "glucose levels in OGTT", "setting": "[4]", "value": "did not vary"}, {"measurement": "total integrated plasma insulin levels (AUC) in OGTT", "setting": "[4]", "value": "significantly (p<0.05) lower"}]}
